Experimental data from BindingDB's records for doi:10.1074/jbc.M111.266981 (AstraZeneca, 2011).

Target: T1, Myeloperoxidase (Homo sapiens, UniProt P05164)
T1 sequence (P05164 whole entry): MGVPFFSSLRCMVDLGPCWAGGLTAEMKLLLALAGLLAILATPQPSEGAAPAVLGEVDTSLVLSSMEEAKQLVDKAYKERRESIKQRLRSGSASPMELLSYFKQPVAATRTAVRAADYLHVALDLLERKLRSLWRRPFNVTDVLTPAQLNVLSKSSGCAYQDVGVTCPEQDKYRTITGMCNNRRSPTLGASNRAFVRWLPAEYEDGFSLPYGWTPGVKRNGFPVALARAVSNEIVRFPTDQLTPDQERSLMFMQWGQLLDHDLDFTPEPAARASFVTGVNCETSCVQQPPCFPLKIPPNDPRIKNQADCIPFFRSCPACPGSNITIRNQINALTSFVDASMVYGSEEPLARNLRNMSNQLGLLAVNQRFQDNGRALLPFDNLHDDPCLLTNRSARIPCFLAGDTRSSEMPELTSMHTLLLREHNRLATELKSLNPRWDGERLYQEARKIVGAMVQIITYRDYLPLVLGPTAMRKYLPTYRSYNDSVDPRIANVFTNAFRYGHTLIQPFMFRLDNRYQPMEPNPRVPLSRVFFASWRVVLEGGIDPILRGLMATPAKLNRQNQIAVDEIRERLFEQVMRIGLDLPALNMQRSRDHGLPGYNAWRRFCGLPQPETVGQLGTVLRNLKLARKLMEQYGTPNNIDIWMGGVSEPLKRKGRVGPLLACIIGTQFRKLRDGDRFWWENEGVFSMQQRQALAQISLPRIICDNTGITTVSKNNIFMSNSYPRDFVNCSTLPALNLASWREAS
Assay: Activity Assay
Details: pH 7.4; 21 °C
Description: The chlorination activity of MPO was determined by measuring the production of hypocholorous acid.

SMILES | IC50 [µM]
CC(C)Cn1c(=S)[nH]c(=O)c2[nH]cnc21 [2-Thioxanthine, TX1] | 1
O=c1[nH]c(=S)n(CC2CCCO2)c2nc[nH]c12 (centres undefined) [2-Thioxanthine, TX3] | 0.4
O=c1[nH]c(=S)n(C[C@H]2CCCO2)c2nc[nH]c12 [2-Thioxanthine, TX4] | 0.2
COCCn1c(=S)[nH]c(=O)c2[nH]cnc21 [2-Thioxanthine, TX5] | 0.4
